Our source for the Ki values is patent publication US6515002B2, “Compounds and compositions for treating C1s-mediated diseases and conditions” (3-Dimensional Pharmaceuticals, Inc., priority 1999, dated 2003).

pKi: −log10 of the molar value.

The target of this assay is T1, C1s (Homo sapiens, UniProt P09871).
T1 construct: purchased Enzyme Research, South Bend, Ind
T1 sequence (P09871 438-688 limits assumed): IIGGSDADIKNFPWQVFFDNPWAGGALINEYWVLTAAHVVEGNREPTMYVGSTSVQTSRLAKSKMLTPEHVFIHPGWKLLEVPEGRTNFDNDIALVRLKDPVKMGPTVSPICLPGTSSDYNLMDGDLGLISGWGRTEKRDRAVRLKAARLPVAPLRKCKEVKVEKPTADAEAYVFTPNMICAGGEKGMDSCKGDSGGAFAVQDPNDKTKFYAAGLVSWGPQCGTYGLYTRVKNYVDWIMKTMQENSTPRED
T1 sequence (P09871 16-437 partner limits assumed): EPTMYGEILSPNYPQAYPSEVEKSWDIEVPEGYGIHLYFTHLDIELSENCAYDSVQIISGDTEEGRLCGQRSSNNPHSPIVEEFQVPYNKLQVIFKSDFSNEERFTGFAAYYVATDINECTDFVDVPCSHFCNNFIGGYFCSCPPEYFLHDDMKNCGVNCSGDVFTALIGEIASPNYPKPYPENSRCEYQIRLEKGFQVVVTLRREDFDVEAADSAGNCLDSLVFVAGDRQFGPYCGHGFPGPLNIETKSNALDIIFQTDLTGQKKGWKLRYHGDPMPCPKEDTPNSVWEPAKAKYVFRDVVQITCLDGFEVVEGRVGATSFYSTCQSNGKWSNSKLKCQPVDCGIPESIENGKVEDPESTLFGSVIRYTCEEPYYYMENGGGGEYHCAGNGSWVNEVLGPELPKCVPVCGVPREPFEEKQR
The experiment in a line: In vitro Inhibition of C1s (Ki determination, Z-Gly-Arg-5-Bzl/DTNB hydrolysis). Format: biochemical. The following applies: purified activated C1s 7.3 nM, substrate Z-Gly-Arg-5-Bzl 45 μM, DTNB 200 μM, pH 7.5, 37° C. Here is the method:
Reagents: All buffer salts were obtained from Sigma Chemical Company (St. Louis, Mo.), and were of the highest purity available.
Ki Determinations: All assays are based on the ability of the test compound to inhibit the Cis catalyzed hydrolysis of the substrate Z-Gly-Arg-5-Bzl via an intermediate reaction with 5,5′-dithio-bis(2-nitrobenzoic acid) (DTNB). [Complement C1s is available commercially from Enzyme Research, South Bend, Ind.] In a typical Ki determination, substrate is prepared in DMSO, and diluted into an assay buffer consisting of 50 mM HEPES, 200 mM NaCl, pH 7.5. […] In general, substrate concentrations are lower than the experimentally determined value for Km. […]
In a typical Ki determination, into each well of a 96-well plate is pipetted 280 μL of substrate solution, 10 μL of test compound solution, and the plate allowed to thermally equilibrate at 37° C. for 15 minutes. Reactions were initiated by the addition of a 10 μL aliquot of the enzyme and the absorbance increase at 405 nm is recorded for 5 minutes in a Molecular Devices plate reader. […] The ratio of the velocity (rate of change in absorbance as a function of time) for a sample containing no test compound is divided by the velocity of a sample containing test compound, and is plotted as a function of test compound concentration. The data are fit to a linear regression, and the value of the slope of the line calculated. […]

“4-[4-(3-{[(2,4-Difluorophenyl)sulfonyl]amino}phenyl)(1,3-thiazol-2-yl)]-5-methylthiophene-2-carboxamidine [Example 290]”: the pKi – broadly, −log10 of the Ki, conventionally taken in molar units – was 7.52.
